Structures can show the parent of a compound that is named as a salt. Where two headings read alike, the source gives them in different places.

The results in this text go back to patent US10266544B2, “Aryl substituted aminomethyl spectinomycin analogs as antibacterial agents” (ST. JUDE CHILDREN'S RESEARCH HOSPITAL, INC., priority 2013, dated 2019).

Assay [1] has as its system Pseudomonas aeruginosa (PA01). The assay can be described thus: MIC determination, microbroth dilution. The format is cell-based.
The test system of another assay is S. pneumoniae D39x. The assay can be described thus: Mouse challenge, mouse model of lung infection. The format is in vivo. Conditions: p<0.02. How it is done: Mice were treated with a 5 mg/kg dose b.i.d. of spectinomycin (indicated as “SPC” in the figure) or compound 2 (the compound number refers to the compound number and associated structure shown in Table 1), or vehicle. (Panel B) The bacterial burden of mice at 18 hours post-challenge with S. pneumoniae D39x. (Panel C) Representative bioluminescent images of mice at 72 hours post challenge.
All experimental animal protocols were approved by the St. Jude Children's Research Hospital Institutional Animal Care and Use Committee. Seven week old, female BalbC/J mice (Jackson Labs, Bar Harbor, Me.) we utilized in these studies. All mice were maintained in BSL2 facilities and all experiments were done under inhaled isoflurane (2.5%). Bacteria (strain D39x) were introduced by intranasal administration of 2×10^7 CFU in 25 μL PBS. Mice received no treatment, plasmalyte A (vehicle control), ampicillin (100 mg/kg), spectinomycin (50, 25, 5 mg/kg) or the respective compounds (50, 25, 5 mg/kg) at dosages indicated. Antibiotics were administered in a volume of 100 μL by subcutaneous […] starting at 18 hours post challenge, a time point when the mice have developed pneumonia and bacteria have translocated into the bloodstream. Mice were subsequently dosed every 12 hours until 96 hours post challenge. Mice were monitored daily for signs of infection and weight loss. Differences in time to death were compared via Kaplan-Meier survival estimates. Bacterial density in blood was quantified at 24, 48, 72, and 96 hours post infection via blood collection, serial dilution, and plating. Groups were then compared by Mann-Whitney to determine statistical significance. At 8 days following challenge, surviving mice were euthanized and bacterial loads in lungs determined by homogenization followed by serial dilution and plating. In all instances, surviving mice had completely cleared bacteria from both the lungs and the bloodstream by this time point.
Compound 2 was tested for anti-pneumococcal activity in mice as described above. […]

Assay [2] relates to Neisseria gonorrhoeae (ATCC 49226). Kind of assay: Disc diffusion assay. The format is cell-based. Conditions: ATCC49226, 4 μg per disc, read-out: Zone of inhibition N.g. A general note: Agar diffusion results depend on both activity and mobility in agar.
Assay [3] relates to MRSA, Staphylococcus aureus (NRS70). Kind of assay: MIC determination, microbroth dilution. The format is cell-based. The settings on record: Staphylococcus aureus (NRS70); read-out: MIC MRSA. (In broth dilution the organism is exposed to a series of concentrations in liquid medium.)
The test system of assay [4] is Enterococcus faecalis (ATCC 33186). Kind of assay: MIC determination, microbroth dilution. The format is cell-based. Conditions: ATCC33186; Enterococcus faecalis (ATCC 33186); read-out: MIC E.f.
The test system of assay [5] is Staphylococcus aureus (ATCC 29213). The assay can be described thus: MIC determination, microbroth dilution. The format is cell-based. Conditions: ATCC29213; Staphylococcus aureus (ATCC 29213); read-out: MIC S.a.
The next assay concerns Bacillus anthracis. Kind of assay: microbe, parasite or virus in culture. The format is cell-based. Conditions: read-out: MIC B.a.
Another assay deals with Listeria monocytogenes. The assay can be described thus: MIC determination (Table 6). The format is cell-based.
Assay [6] relates to Neisseria gonorrhoeae (ATCC 49226). The assay can be described thus: Agar MIC determination (Alamar Blue). Conditions: ATCC49226, agar MIC, read-out: MIC N.g. It counts as cell-based. On the technique in general: Resazurin is reduced to fluorescent resorufin, in cell work by metabolically active cells.
The test system of assay [7] is Escherichia coli (ATCC 700926). The assay can be described thus: MIC determination, microbroth dilution. It counts as cell-based. The settings on record: ATCC700926; Escherichia coli (ATCC 700926); read-out: MIC E.c.
The subject of assay [8] is Streptococcus pyogenes (ATCC 700294). Kind of assay: MIC determination, microbroth dilution. It counts as cell-based. The settings on record: ATCC700294; Streptococcus pyogenes (ATCC 700294); read-out: MIC S. py.
The test system of assay [9] is Bacillus anthracis, Sterne 34F2. The assay can be described thus: microbe, parasite or virus in culture. The format is cell-based. Conditions: STERNE34F2, read-out: MIC B.a.
For assay [10], the system named is Klebsiella pneumoniae (ATCC 33495). The assay can be described thus: MIC determination, microbroth dilution. It counts as cell-based. The settings on record: ATCC33495.
Another assay concerns E. coli K12 ΔtolC. The assay can be described thus: microbe, parasite or virus in culture. The format is cell-based. The settings on record: Escherichia coli, read-out: MIC E.c. Δtolc.
The test system of assay [11] is Haemophilus influenza (ATCC 49247). The assay can be described thus: microbe, parasite or virus in culture. The format is cell-based. The settings on record: ATCC49247; Haemophilus influenza; 4 μg per disc; range of at least two experiments; read-out: Zone of inhibition H.i.
The subject of assay [12] is M. tuberculosis clinical isolates. The assay can be described thus: microbe, parasite or virus in culture. The settings on record: Mycobacterium tuberculosis, H37RV, read-out: MIC H37Rv. It counts as cell-based.
The test system of assay [13] is Streptococcus pneumoniae (R6). Kind of assay: MIC determination, microbroth dilution. It counts as cell-based.
For assay [14], the system named is Proteus vulgaris (ATCC 33420). Kind of assay: MIC determination, microbroth dilution. Conditions: ATCC33420. The format is cell-based.

Regarding `CN[C@@H]1[C@H](O)[C@H](NC)[C@H]2O[C@]3(O)[C@H](O[C@@H]2[C@H]1O)O[C@H](C)C[C@@]3(O)CNCc1ccc(F)cc1` [compound 2, 3′-(R)-3′-[(4-fluoro)benzylaminomethyl)]dihydrospectinomycin Trihydrochloride], the MIC in assay [1] is 100 to 200 µg/mL; in assay [3] it was 50 µg/mL; in [4] it was 12.5 to 25 µg/mL; in assay [5], 25 to 50 µg/mL; in the assay on Bacillus anthracis, 25 µg/mL; in the assay on Listeria monocytogenes it was 6.3 µg/mL. In addition, the MIC in [6] is 25 µg/mL; in [7], 25 µg/mL; in assay [8], 1.6 to 3.1 µg/mL; in [9], 25 µg/mL; in assay [10] it was 100 to 200 µg/mL; in the assay on E. coli K12 ΔtolC it was 6.3 µg/mL. Besides, the MIC was 25 µg/mL in assay [12]; 1.6 to 3.1 µg/mL in assay [13] (Streptococcus pneumoniae (R6), read-out: MIC S. pn.); 3.1 µg/mL in assay [13] (Streptococcus pneumoniae, S. pneumoniae R6, Drug Susceptible, read-out: MIC R6); at least 200 µg/mL in [14]. The survival entry with S. pneumoniae D39x (5 mg/Kg BID subcutaneous, from 18 hours post intranasal challenge, vs vehicle and spectinomycin) is recorded as “significantly improved survival”. Besides, in the assay on S. pneumoniae D39x (48 hours post-challenge, vs spectinomycin and vehicle), the “bacterial burden in the blood” value was “reduced significantly”. The results for the zone of inhibition at 4 µg/disc in assay [2] and in assay [11] were 16 to 19 mm and 17 to 19 mm, respectively.

One may read the zone of inhibition as the extent of the growth-free halo in a diffusion test.
